Holding throughout (format): cell-based
Series [1] deals with PC12 cells. As to the kind of experiment: Acetylcholinesterase activity assay (AChE release from PC12 cells, Ellman reagent). The following applies: % AChE release compared to untreated control. The procedure: AChE activity was measured using the Ellman reagent that measures the presence of thiol groups as a result of AChE activity. Cells were plated the day before the experiment as for the cell viability assay. […] The Ellman reagent was prepared as a mixture of the 3 solutions in a ratio 33(A):3(B):4(C). Absorbance measurements were taken at regular intervals (3, 10, 30 and 60 mins) across experiments at 405 nm.
A general note: Ellman's reagent forms a yellow product with free thiols.

Series [2] can be described thus: Cell viability assay (Cell Counting Kit-8).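 Also: PC12 cells in 96-well plates, WST-8 turned into formazan by cellular dehydrogenases, absorbance read at 450 nm after 2 h with the reagent, signal proportional to living cell number.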 The following applies: % PC12 cell viability compared to untreated control. A general note: Formazan colour is commonly taken as a measure of viable cells.
Text: A Cell Counting Kit-8 (CCK-8) was used as an improvement of the SRB technique used before. By utilizing the highly water-soluble tetrazolium salt WST-8, CCK-8 produces a water-soluble formazan dye upon reduction in the presence of an electron carrier. WST-8 is reduced by dehydrogenases in cells to give a yellow colored product (formazan), which is soluble in the tissue culture medium. The amount of the formazan dye generated by the activity of dehydrogenases in cells is directly proportional to the number of living cells. PC12 cells are plated in 200 μl of complete growth medium the day before the experiment in 96 well plates. […] Subsequently, 100 μl of growth medium is removed and 10 μl of CCK-8 (Cell Counting Kit-8) solution is added. The plate is incubated for 2 hours in the incubator and then placed in the absorbance plate reader. The absorbance must be measured at 450 nm.
Series [3] has as its system PC12 cells. As to the kind of experiment: Calcium fluorometry (Fluo-8, acetylcholine-induced calcium influx). Also on record: Calcium: scale not given here. The following applies: for Calcium: calcium influx value, control based on acetylcholine alone. The text has this: A final criterion used to determine active peptides is the amount of calcium influx into PC12 cells caused by the peptide. The calcium influx value can be calculated as described in the methods section. The calcium value corresponds to the result from the experiment when applying T30 or Aβ alone or in conjunction with the small peptides. The control value for these experiments is based on the calcium influx induced by acetylcholine alone. Preferably, the peptide, derivative or analogue thereof has a calcium influx value of less than 120, and more preferably a value of 97-120.
PC12 cells are plated in 200 μl of complete growth medium the day before the experiment in 96 well plates. On the day of the experiment, the Fluo-8 solution (Abcam) is prepared (as per provider protocol). Subsequently, 100 μl of growth medium is removed and 100 μl of Fluo-8 solution is added. Treatments with T30 or Aβ in conjunction with NBP-14 or small peptides are added and incubated for 30 minutes in the incubator and 30 minutes room temperature.
After 1 hour, the plate is placed in the fluorescence plate reader (Fluostar). Before reading the fluorescence, acetylcholine (ACh) 100 μM is prepared and placed in the Fluostar injector. For each well, the reading will be formed by a basal fluorescence followed by acetylcholine injection that will induce an increase of calcium via nicotinic receptors. The effects of the peptides are then evaluated.

The test system of series [4] is PC12 cells. As to the kind of experiment: Value coefficient (AChE release vs PC12 cell viability) and filter selection. The following applies: for Value AChE/Viability: 1.0 to 1.1 = protective, control = 1; for neuroprotective agent against T30 when all four filters are taken into consideration: filters: value coefficient, in silico binding, calcium influx, peptide size.
Text: AChE release vs PC12 cell viability (for which there is a significant negative correlation); • 2. In silico binding to the allosteric site of the α7 nicotinic-receptor; • 3. Calcium influx into PC12 cells; and • 4. Peptide size.

[5] abbreviates: T30 5 μM + small peptide 0.5 μM.

Ends that are not written are not given here.

For orientation: viability means a read-out of living cells in per cent, often relative to untreated cells. With AEFHRWSS [NBP-804], the AChE in the series on PC12 cells [1] (setting [5]) is on record as 107.69%. In addition, in series [2] (setting [5]), the viability is 108%. Further, in the series on PC12 cells [3] (T30 + small peptide), the Calcium amounted to 106.7. Also, in the series on PC12 cells [4] (setting [5]), the “Value AChE/Viability” value is given as 1. Besides, the “neuroprotective agent against T30 when all four filters are taken into consideration” value (from here on “neuroprotective agent against T30”) with PC12 cells [4] is “neuroprotective agents against T30”.

With AEFHRWSSYMV [NBP-1104], the AChE with PC12 cells [1] (setting [5]) worked out at 102.36%. Further, the viability in series [2] (setting [5]) turned out to be 111%. The Calcium with PC12 cells [3] (T30 + small peptide) is listed as 119.82. Further, the “Value AChE/Viability” value with PC12 cells [4] (setting [5]) is given as 1.

Consider EFHRWSS [NBP-705, EFHRWSS], for which the AChE with PC12 cells [1] (setting [5]) came to 94.07%. Also, the viability in series [2] (setting [5]) worked out at 91%. Also, the Calcium in the series with PC12 cells [3] (T30 + small peptide) is 111.98. Besides, the “Value AChE/Viability” value in the series on PC12 cells [4] (setting [5]) came out at 1.03. The “neuroprotective agent against T30” value with PC12 cells [4] is listed as “neuroprotective agents against T30”.

For the substance EFHRWSSYM [NBP-905], the AChE in the series with PC12 cells [1] (Aβ 5 μM + small peptide 0.5 μM) is reported as 106.42%. Besides, the viability in series [2] (Aβ 5 μM + small peptide 0.5 μM) amounted to 97.2%. The Calcium in the series with PC12 cells [3] (Aβ + small peptide) is recorded as 194.22. Besides, the “Value AChE/Viability” value in the series on PC12 cells [4] (Aβ 5 μM + small peptide 0.5 μM) came to 1.09.

As for EFHRWSSYMVHW [NBP-1205], the AChE with PC12 cells [1] (setting [5]) was 95.79%. For the same substance, the viability in series [2] (setting [5]) was determined as 89.4%. In the series with PC12 cells [3] (T30 + small peptide), the Calcium is recorded as 132.71. Besides, in the series on PC12 cells [4] (setting [5]), the “Value AChE/Viability” value was 1.07.

For the substance EFHRWSSYMVHWKA [NBP-1405], the AChE in the series on PC12 cells [1] (setting [5]) was determined as 91.57%. Also, the viability in series [2] (setting [5]) came to 83.9%. In addition, the Calcium in the series on PC12 cells [3] (T30 + small peptide) stood at 100.59. In addition, the “Value AChE/Viability” value with PC12 cells [4] (setting [5]) stood at 1.09.

Consider FHRWSS [NBP-606], for which, in the series with PC12 cells [1] (setting [5]), the AChE is given as 107.88%. Besides, the viability in series [2] (setting [5]) was found to be 103%. Moreover, the Calcium in the series on PC12 cells [3] (T30 + small peptide) stood at 131.85. Further, in the series on PC12 cells [4] (setting [5]), the “Value AChE/Viability” value amounted to 1.05.

Take FHRWSSYMVHWK [NBP-1206]: the AChE with PC12 cells [1] (Aβ 5 μM + small peptide 0.5 μM) is recorded as 96.92%. In addition, the viability in series [2] (Aβ 5 μM + small peptide 0.5 μM) turned out to be 93.6%. Further, in the series with PC12 cells [3] (Aβ + small peptide), the Calcium came to 127.27. For the same substance, in the series with PC12 cells [4] (Aβ 5 μM + small peptide 0.5 μM), the “Value AChE/Viability” value was found to be 1.04.

For the substance FHRWSSYMVHWKAE [NBP-1406], the AChE with PC12 cells [1] (setting [5]) amounted to 92.78%. Also, the viability in series [2] (setting [5]) was determined as 86.6%. Moreover, the Calcium with PC12 cells [3] (T30 + small peptide) is reported as 101.06. The “Value AChE/Viability” value with PC12 cells [4] (setting [5]) stood at 1.07.

Consider HRWSSY [NBP-607], for which the AChE in the series with PC12 cells [1] (Aβ 5 μM + small peptide 0.5 μM) is 97.53%. Further, the viability in series [2] (Aβ 5 μM + small peptide 0.5 μM) is 94.9%. Further, the Calcium in the series with PC12 cells [3] (Aβ + small peptide) was 168.97. Besides, in the series with PC12 cells [4] (Aβ 5 μM + small peptide 0.5 μM), the “Value AChE/Viability” value came to 1.03.

For HRWSSYM [NBP-707], in the series with PC12 cells [1] (setting [5]), the AChE was found to be 98.35%. Also, in series [2] (setting [5]), the viability came out at 98.5%. Also, the Calcium in the series on PC12 cells [3] (T30 + small peptide) is listed as 120.17. Besides, the “Value AChE/Viability” value in the series on PC12 cells [4] (setting [5]) came to 1.

On to HRWSSYMVHWK [NBP-1107], for which, in the series with PC12 cells [1] (setting [5]), the AChE was determined as 93.13%. The viability in series [2] (setting [5]) stood at 93.1%. Further, the Calcium with PC12 cells [3] (T30 + small peptide) came to 95.43. Moreover, the “Value AChE/Viability” value in the series with PC12 cells [4] (setting [5]) worked out at 1.

With HRWSSYMVHWKA [NBP-1207], the AChE in the series with PC12 cells [1] (Aβ 5 μM + small peptide 0.5 μM) came out at 94.30%. In addition, in series [2] (Aβ 5 μM + small peptide 0.5 μM), the viability stood at 87.4%. For the same substance, the Calcium in the series with PC12 cells [3] (Aβ + small peptide) is 261.22. For the same substance, in the series on PC12 cells [4] (Aβ 5 μM + small peptide 0.5 μM), the “Value AChE/Viability” value is 1.08.

As to HRWSSYMVHWKAE [NBP-1307], the AChE in the series on PC12 cells [1] (Aβ 5 μM + small peptide 0.5 μM) stood at 94.29%. In series [2] (Aβ 5 μM + small peptide 0.5 μM), the viability was found to be 92.5%. For the same substance, in the series on PC12 cells [3] (Aβ + small peptide), the Calcium is on record as 218.25. Also, the “Value AChE/Viability” value with PC12 cells [4] (Aβ 5 μM + small peptide 0.5 μM) is recorded as 1.02.

With HRWSSYMVHWKAEF [NBP-1407], the AChE in the series on PC12 cells [1] (setting [5]) is recorded as 94.49%. The viability in series [2] (setting [5]) was found to be 90.5%. Also, the Calcium in the series on PC12 cells [3] (T30 + small peptide) was determined as 111.71. Also, the “Value AChE/Viability” value with PC12 cells [4] (setting [5]) came to 1.04.

Turning to HWKAEF [NBP-601, HWKAEF], the AChE with PC12 cells [1] (setting [5]) was 100.99%. Moreover, the viability in series [2] (setting [5]) came out at 93.2%. The Calcium with PC12 cells [3] (T30 + small peptide) was determined as 118.37. Moreover, in the series with PC12 cells [3] (dose-dependent experiments, FIGS. 8 and 9), the “dose-dependent effect on calcium potentiation against T30” value is given as “protect against T30 effects”. Further, the “Value AChE/Viability” value in the series with PC12 cells [4] (setting [5]) amounted to 1.08. In the series on PC12 cells [4], the “neuroprotective agent against T30” value is “neuroprotective agents against T30”.

As to HWKAEFHR [NBP-801], the AChE with PC12 cells [1] (Aβ 5 μM + small peptide 0.5 μM) is listed as 108.63%. The viability in series [2] (Aβ 5 μM + small peptide 0.5 μM) came to 102%. The Calcium in the series on PC12 cells [3] (Aβ + small peptide) is listed as 168.66. For the same substance, the “Value AChE/Viability” value in the series with PC12 cells [4] (Aβ 5 μM + small peptide 0.5 μM) worked out at 1.06.

Take HWKAEFHRWSS [NBP-1101]: in the series with PC12 cells [1] (setting [5]), the AChE worked out at 91.9%. The viability in series [2] (setting [5]) is 91.9%. The Calcium in the series with PC12 cells [3] (T30 + small peptide) is on record as 86.58. Besides, the “Value AChE/Viability” value with PC12 cells [4] (setting [5]) is listed as 1.
